ChEMBL document CHEMBL1138623, “Synthesis and evaluation of aryl-substituted diarylpropionitriles, selective ligands for estrogen receptor beta, as positron-emission tomographic imaging agents” (Bioorg Med Chem, 2009)

Species on record: Homo sapiens
Assay: Selectivity ratio of relative binding affinity for full-length human estrogen receptor beta to ratio of relative binding affinity for full length human estrogen receptor alpha

Row | SMILES | RBA
1 | CC(c1ccc(O)cc1)C(C#N)c1ccc(O)cc1 (stereo unspecified) | 11%
2 | N#CC(Cc1ccc(O)c(O)c1)c1ccc(O)cc1 (stereo unspecified) | 106%
3 | Cc1cc(CC(C#N)c2ccc(O)cc2)ccc1O (stereo unspecified) | 139%
4 | N#CC(c1ccc(O)cc1)C(CF)c1ccc(O)cc1 (stereo unspecified) | 21%
5 | N#CC(Cc1ccc(O)c(Br)c1)c1ccc(O)cc1 (stereo unspecified) | 108%
6 | N#CC(Cc1ccc(O)c(Cl)c1)c1ccc(O)cc1 (stereo unspecified) | 112%
7 | N#CC(Cc1ccc(O)c(I)c1)c1ccc(O)cc1 (stereo unspecified) | 140%

Next, values leading:

Row | RBA | SMILES
8 | 45% | N#CC(Cc1ccc(O)c(CCCF)c1)c1ccc(O)cc1 (stereo unspecified)
9 | 272% | N#CC(Cc1ccc(O)c(F)c1)c1ccc(O)cc1 (stereo unspecified)
10 | 19% | N#CC(Cc1ccc(O)c(CO)c1)c1ccc(O)cc1 (stereo unspecified)
11 | 58% | N#CC(Cc1ccc(O)c(CCF)c1)c1ccc(O)cc1 (stereo unspecified)
